Experimental data: ChEMBL document CHEMBL4373702, “Intracellular Trapping of the Selective Phosphoglycerate Dehydrogenase (PHGDH) Inhibitor BI-4924 Disrupts Serine Biosynthesis” (J Med Chem, 2019)
Values after ≈ are worked out from the molar mass of the structure shown. Active and inactive are the calls of the source. No cut-off for these calls is given here.

What was measured:
[1] = Stability in human liver microsomes relative to hepatic blood flow; type: ADME, Microsome; settings: read-out: Stability
[2] = target: T1, 3-hydroxyisobutyrate dehydrogenase, mitochondrial (Homo sapiens) (UniProt P31937); assay: Binding affinity to 3-hydroxyisobutyrate dehydrogenase in human MDA-MB-468 cells at 10 uM incubated for 2 hrs in presence of 12-amino-2-[4-[(1S)-1-[(4,5-dichloro-1,6-dimethyl-indole-2-carbonyl)amino]-2-hydroxy-ethyl]phenyl]sulfonyl-dodecanoic acid by quantitative chemical proteomics assay; type: cell-based
T1 sequence (whole entry): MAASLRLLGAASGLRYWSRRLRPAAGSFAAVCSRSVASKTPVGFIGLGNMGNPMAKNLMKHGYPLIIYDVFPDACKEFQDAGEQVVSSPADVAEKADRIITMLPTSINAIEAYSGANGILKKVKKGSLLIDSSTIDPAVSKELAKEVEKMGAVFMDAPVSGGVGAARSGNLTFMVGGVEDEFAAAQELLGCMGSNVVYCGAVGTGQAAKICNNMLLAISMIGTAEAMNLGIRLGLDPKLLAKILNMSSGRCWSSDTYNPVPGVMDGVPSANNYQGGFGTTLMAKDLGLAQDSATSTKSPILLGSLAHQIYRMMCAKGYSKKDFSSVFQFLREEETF

[3] = Protein binding in mouse plasma; type: ADME, cell-free; settings: read-out: PPB (converted)
[4] = Stability in mouse hepatocytes relative to hepatic blood flow; type: ADME, cell-based, Hepatocyte; settings: read-out: Stability
[5] = Solubility pH 6.8 buffer; type: physicochemical
[6] = Stability in mouse liver microsomes relative to hepatic blood flow; type: ADME, Microsome; settings: read-out: Stability
[7] = Permeability from apical to basolateral side in human Caco2 cells; type: ADME, cell-based; settings: caco-2
[8] = Solubility pH 4.5 buffer; type: physicochemical
[9] = Protein binding in 10% fetal calf serum; type: ADME, cell-free, Bos taurus; settings: cattle, read-out: PB (converted)
[10] = Permeability from basolateral to apical side in human Caco2 cells; type: ADME, cell-based; settings: caco-2
[11] = Stability in rat liver microsomes relative to hepatic blood flow; type: ADME, Microsome; settings: read-out: Stability
[12] = target: T2, D-3-phosphoglycerate dehydrogenase (Homo sapiens, UniProt O43175); assay: Inhibition of PHGDH in human MDA-MB-468 cells assessed as reduction in [13C]-serine incubated for 72 hrs using [13C]glucose as substrate by LC-MS/MS analysis; type: cell-based
T2 sequence (O43175 whole entry): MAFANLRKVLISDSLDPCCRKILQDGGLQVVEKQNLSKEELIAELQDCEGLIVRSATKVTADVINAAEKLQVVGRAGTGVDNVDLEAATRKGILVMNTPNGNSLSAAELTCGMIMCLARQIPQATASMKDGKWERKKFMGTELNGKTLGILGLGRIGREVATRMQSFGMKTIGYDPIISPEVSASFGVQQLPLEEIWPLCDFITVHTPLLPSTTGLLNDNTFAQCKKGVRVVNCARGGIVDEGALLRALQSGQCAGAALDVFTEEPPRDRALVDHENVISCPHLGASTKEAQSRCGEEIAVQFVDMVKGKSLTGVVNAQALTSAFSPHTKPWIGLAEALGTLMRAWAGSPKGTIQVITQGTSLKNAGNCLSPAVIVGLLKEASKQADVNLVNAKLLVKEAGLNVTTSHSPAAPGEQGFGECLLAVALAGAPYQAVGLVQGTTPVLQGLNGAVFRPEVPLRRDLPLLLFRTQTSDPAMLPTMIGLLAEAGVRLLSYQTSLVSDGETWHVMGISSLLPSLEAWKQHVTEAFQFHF

[13] = target: Alcohol dehydrogenase class-3 (Homo sapiens) (UniProt P11766); assay: Binding affinity to Alcohol dehydrogenase class-3 in human MDA-MB-468 cells at 10 uM incubated for 2 hrs in presence of 12-amino-2-[4-[(1S)-1-[(4,5-dichloro-1,6-dimethyl-indole-2-carbonyl)amino]-2-hydroxy-ethyl]phenyl]sulfonyl-dodecanoic acid by quantitative chemical proteomics assay; type: cell-based
[14] = target: T1, 3-hydroxyisobutyrate dehydrogenase, mitochondrial (Homo sapiens); assay: Binding affinity to 3-hydroxyisobutyrate dehydrogenase in human MDA-MB-468 cells at 10 uM incubated for 2 hrs in presence of 2-[4-[(1S)-1-[[6-(10-aminodecyl)-4,5-dichloro-1-methyl-indole-2-carbonyl]amino]-2-hydroxy-ethyl]phenyl]sulfonylacetic acid by quantitative chemical proteomics assay; type: cell-based
[15] = Efflux ratio of permeability from apical to basolateral side over basolateral to apical side in human Caco2 cells; type: ADME, cell-based; settings: caco-2
[16] = target: Alcohol dehydrogenase class-3 (Homo sapiens) (UniProt P11766); assay: Binding affinity to Alcohol dehydrogenase class-3 in human MDA-MB-468 cells at 10 uM incubated for 2 hrs in presence of 2-[4-[(1S)-1-[[6-(10-aminodecyl)-4,5-dichloro-1-methyl-indole-2-carbonyl]amino]-2-hydroxy-ethyl]phenyl]sulfonylacetic acid by quantitative chemical proteomics assay; type: cell-based

Chain of Alcohol dehydrogenase class-3 (Homo sapiens) (P11766 2-374 limits assumed): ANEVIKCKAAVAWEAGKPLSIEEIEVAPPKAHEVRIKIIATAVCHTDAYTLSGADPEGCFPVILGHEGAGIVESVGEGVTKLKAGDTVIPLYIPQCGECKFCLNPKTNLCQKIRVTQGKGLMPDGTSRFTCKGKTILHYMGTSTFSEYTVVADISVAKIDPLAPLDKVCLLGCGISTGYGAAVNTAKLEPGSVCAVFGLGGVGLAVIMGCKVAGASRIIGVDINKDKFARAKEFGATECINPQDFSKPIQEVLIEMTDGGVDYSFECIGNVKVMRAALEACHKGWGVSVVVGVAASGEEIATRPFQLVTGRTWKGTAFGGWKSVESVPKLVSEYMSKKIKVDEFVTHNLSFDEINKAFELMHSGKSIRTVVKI

SMILES: Cc1cc2c(cc(C(=O)N[C@H](CO)c3ccc(S(=O)(=O)CC(=O)O)cc3)n2C)c(Cl)c1Cl
- hepatic extraction ratio [1]: < 0.24
- Activity [2]: Active
- fraction unbound [3]: 0.004
- hepatic extraction ratio [4]: 0.38
- solubility [5]: 59 mg/mL (≈ 118 mM)
- hepatic extraction ratio [6]: < 0.23
- permeability [7]: 0.2 ×10⁻⁶ cm/s
- solubility [8]: 64 mg/mL (≈ 128 mM)
- fraction unbound [9]: 0.17
- permeability [10]: 0.2 ×10⁻⁶ cm/s
- hepatic extraction ratio [11]: < 0.24
- IC50 [12]: 2.2 µM
- Activity [13]: Active
- Activity [14]: Active
- Ratio [15]: 11
- Activity [16]: Active
